The results in this text go back to patent US10774084B2, “Adenine derivatives and their use as UV-photoprotective agents” (UNIVERZITA PALACKEHO V OLOMOUCI, priority 2015, dated 2020).

The subject of the data set is GSH depletion. Kind of data set: UVA-induced GSH depletion in NHDF (DTNB). It counts as cell-based, human. An excerpt:
Normal human dermal fibroblasts (NHDF) were used as an in vitro model. Cells were isolated from tissue specimens obtained from healthy patients undergoing plastic surgery at the Department of Plastic and Aesthetic Surgery (University Hospital Olomouc). The use of skin tissue was in accordance with the Ethics Committee of the University Hospital and Faculty of Medicine and Dentistry, Palacky University, Olomouc and all patients signed written informed consent. Fibroblasts were used between the 2nd and 4th passage. […]
Test compounds included 6-(tetrahydrofuran-2-ylmethylamino)-9-(tetrahydrofuran-2-yl)purine and positive control (rosmarinic acid). […] Intensity of UVA radiation was evaluated before each irradiation by UVA-meter. […] After 1 hour (37° C., 5% CO2) cell damage was evaluated by analysis of reactive oxygen species (ROS) production. In parallel, intracellular levels of glutathion (GSH) were measured 4 hours (37° C., 5% CO2) after UVA application.
GSH levels in NHDF were evaluated by reaction with 5,5′-Dithiobis(2-nitrobenzoic acid) (DTNB). […] Absorbance was measured at 412 nm. Protein content was analyzed spectrophotometrically by Lowry's method at 680 nm.
Activity of test compounds (not irradiated) in analyzed parameters were evaluated by comparison of experimental data according to the following equation: […]

`c1nc(NCC2CCCO2)c2ncn(C3CCCO3)c2n1` (centres unmarked) [Compound 1, 6-(tetrahydrofuran-2-ylmethylamino)-9-(tetrahydrofuran-2-yl)purine]: the “protection against GSH depletion in comparison with rosmarinic acid (in words)” value (UVA, NHDF) is given as “less effective”. The “effect on GSH level in non-irradiated cells (in words)” value (non-irradiated NHDF, 2.5-20 μmol/l) was “did not showed negative effect”.
